Results from patent US20080269213A1, “8-Hydroxyquinoline compounds and methods thereof” (Wyeth, priority 2006, published 2008).
Several values for one entry are separate records, joined by “and”; a condition that tells them apart may be missing. Identical values can stand only once.

What follows are molecules tested against T1, recombinant human Aggrecanase-2 Agg2-Phe628 (Homo sapiens, UniProt Q9UNA0) (assay: Aggrecanase 2 in vitro enzyme assay (Agg-2 FRET, quenched fluorescent peptide substrate)). Conditions: concentration not given.
T1 sequence (Q9UNA0 262-628 limits assumed): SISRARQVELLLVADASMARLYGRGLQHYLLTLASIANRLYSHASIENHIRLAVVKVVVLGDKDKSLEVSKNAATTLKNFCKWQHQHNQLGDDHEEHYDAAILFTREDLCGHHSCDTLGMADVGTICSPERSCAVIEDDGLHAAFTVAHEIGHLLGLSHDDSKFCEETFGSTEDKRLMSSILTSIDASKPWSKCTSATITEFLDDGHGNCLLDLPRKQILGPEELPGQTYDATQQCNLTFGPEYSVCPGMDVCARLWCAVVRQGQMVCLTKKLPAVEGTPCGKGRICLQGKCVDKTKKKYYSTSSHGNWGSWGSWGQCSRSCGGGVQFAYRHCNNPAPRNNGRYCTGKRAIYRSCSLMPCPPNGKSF
Format: biochemical
Parameters: purified recombinant human Aggrecanase-2 Agg2-Phe628 (MW=41,737); This is a truncated form of full-length human aggrecanase-2; made in house; host or cells: CHO cells
Method: A continuous assay was used in which the substrate was a synthetic peptide containing a fluorescent group (o-aminobenzyl, Abz), which was quenched by energy transfer to a 2,4-dinitrophenyl group (Dnp). The buffer used in this assay was 50 mM HEPES, pH 7.5, 100 mM NaCl, 5 mM CaCl2, 0.1% CHAPS, 5% glycerol. The source of enzyme was purified recombinant human Aggrecanase-2 Agg2-Phe628 (MW=41,737). This is a truncated form of full-length human aggrecanase-2 that was expressed in CHO cells and purified. The final concentration of Agg2-Phe628 was 0.5 μg/ml. […] It is a synthetic peptide that is designed after a portion of brevican, one of the naturally occurring substrates of Aggrecanase-2, of the sequence Abz-[…]-Dap(Dnp)-KK—NH2 (mass=1740). The concentration of this substrate stock was spectrophotometrically determined using the extinction coefficient at 354 nm of 18,172 M^−1cm^−1. […] The final concentration of substrate in the assay was 25 μM.
Test compounds (in duplicate) were serially diluted from 2 mM to 0.01 μM in 100% DMSO. The total reaction volume was 100 μl. The buffer and enzyme were added first followed by addition of 10× inhibitor from the dilution plate. Enzyme and buffer alone samples were included in order to obtain the maximal rate of substrate cleavage. […] Then substrate was added, mixed and the reaction monitored for 40 min at 30° C. in kinetic mode using λex: 340 nm and % λem: 420 (GeminiXS Molecular Devices).

Molecule | Agg-2 FRET Median PCT INHIB [%]
COc1ccc(C(NC(=O)COc2ccc(Cl)c(C)c2)c2cc(Cl)c3cccnc3c2O)cc1 (centres unmarked) [N-[(5-chloro-8-hydroxyquinolin-7-yl)(4-methoxyphenyl)methyl]-2-(4-chloro-3-methylphenoxy)acetamide] | 57
O=C(CCc1ccccc1)NC(c1ccccc1)c1cc(Cl)c2cccnc2c1O (centres unmarked) [N-[(5-chloro-8-hydroxyquinolin-7-yl)(phenyl)methyl]-3-phenylpropanamide] | 23
Cc1cc(OCC(=O)NC(c2cccc([N+](=O)[O-])c2)c2cc(Cl)c3cccnc3c2O)ccc1Cl (centres unmarked) [N-[(5-chloro-8-hydroxyquinolin-7-yl)(3-nitrophenyl)methyl]-2-(4-chloro-3-methylphenoxy)acetamide] | 53
O=C(COc1ccccc1)NC(c1ccc(Cl)cc1Cl)c1cc(Cl)c2cccnc2c1O (centres unmarked) [N-[(5-chloro-8-hydroxyquinolin-7-yl)(2,4-dichlorophenyl)methyl]-2-phenoxyacetamide] | 57

Same assay, conditions: read-out: Agg2 IC50

Molecule | IC50 [µM]
O=C(CCc1ccccc1)NC(c1ccccc1)c1cc(Cl)c2cccnc2c1O (centres unmarked) [N-[(5-chloro-8-hydroxyquinolin-7-yl)(phenyl)methyl]-3-phenylpropanamide] | > 5

Same assay, conditions: read-out: Agg-2 FRET Median IC50

Molecule | IC50
CN(C)c1ccc(C(NC(=O)COc2ccccc2)c2ccc3cccnc3c2O)cc1 (centres unmarked) [Example 99, N-[[4-(dimethylamino)phenyl](8-hydroxyquinolin-7-yl)methyl]-2-phenoxyacetamide] | 5.54 µM
CC(=O)c1ccc(OCC(=O)NC(c2cccc([N+](=O)[O-])c2)c2cc(Cl)c3cccnc3c2O)cc1 (centres unmarked) [2-(4-acetylphenoxy)-N-[(5-chloro-8-hydroxyquinolin-7-yl)(3-nitrophenyl)methyl]acetamide] | 2.33 µM
Cc1cc(NCC(=O)NC(c2ccccc2Cl)c2cc(Cl)c3cccnc3c2O)ccc1Cl (centres unmarked) [Example 19, N^1-[(5-chloro-8-hydroxyquinolin-7-yl)(2-chlorophenyl)methyl]-N^2-(4-chloro-3-methylphenyl)glycinamide] | 1.48 µM
N-[(5-chloro-8-hydroxyquinolin-7-yl)(4-methoxyphenyl)methyl]-2-(4-methylphenoxy)acetamide [Example 80] | 0.774 µM
O=C(CNCc1ccccc1)NC(c1cccc([N+](=O)[O-])c1)c1cc(Cl)c2cccnc2c1O (centres unmarked) [Example 64, N^2-benzyl-N^1-[(5-chloro-8-hydroxyquinolin-7-yl)(3-nitrophenyl)methyl]glycinamide] | 0.765 µM
O=C(COc1ccccc1)NC(c1ccc([N+](=O)[O-])cc1)c1ccc2cccnc2c1O (centres unmarked) [N-[(8-hydroxyquinolin-7-yl)(4-nitrophenyl)methyl]-2-phenoxyacetamide] | 2.39 µM
O=C(COc1ccc(Cl)cc1)NC(c1ccccc1)c1cc(Cl)c2cccnc2c1O (centres unmarked) [N-[(5-chloro-8-hydroxyquinolin-7-yl)(phenyl)methyl]-2-(4-chlorophenoxy)acetamide] | 1.02 µM
Cc1ccccc1C(NC(=O)COc1ccccc1)c1cc(C)c2cccnc2c1O (centres unmarked) [N-[(8-hydroxy-5-methylquinolin-7-yl)(2-methylphenyl)methyl]-2-phenoxyacetamide] | 3.51 µM
COc1cc(C(NC(=O)COc2ccccc2)c2cc(Cl)c3cccnc3c2O)ccc1O (centres unmarked) [N-[(5-chloro-8-hydroxyquinolin-7-yl)(4-hydroxy-3-methoxyphenyl)methyl]-2-phenoxyacetamide] | 7.3 µM
CC(=O)c1ccc(NCC(=O)NC(c2ccc(C)cc2)c2cc(Cl)c3cccnc3c2O)cc1 (centres unmarked) [Example 24, N^2-(4-acetylphenyl)-N^1-[(5-chloro-8-hydroxyquinolin-7-yl)(4-methylphenyl)methyl]glycinamide] | 1.12 µM
COc1ccc(C(NC(=O)COc2ccccc2)c2cc(Cl)c3cccnc3c2O)cc1 (centres unmarked) [N-[(5-chloro-8-hydroxyquinolin-7-yl)(4-methoxyphenyl)methyl]-2-phenoxyacetamide] | 1.12 µM and 1 µM
O=C(COc1ccccc1)NC(c1ccc(F)cc1Cl)c1cc(Cl)c2cccnc2c1O (centres unmarked) [N-[(2-chloro-4-fluorophenyl)(5-chloro-8-hydroxyquinolin-7-yl)methyl]-2-phenoxyacetamide] | 1.09 µM
